In patent US20200100505A1, “MICROBIAL INSECTICIDE FOR CONTROL OF MULBERRY THRIPS” (FARMHANNONG CO., LTD., priority 2017, published 2020):

Tested on: Western flower thrips
Test: Insecticidal effect against thrips on caged potted tomato crop
Assay type: in vivo
Conditions: tomato pot in cage, granules 2 g per pot, clothianidin 0.02 g per pot
Procedure: An experiment on the insecticidal effect against thrips was carried out in a tomato crop. A population of the tomato crop having a height of 20 to 25 cm was used, and the tomato crop was put into a plastic cage (30×30×60 cm^3) equipped with a sieve with mesh smaller than that of Western flower thrips to prevent Western flower thrips from moving from a treatment zone, and an experiment was then performed.
A pot in which a tomato crop was planted, was treated with 2 g of the microbial insecticide granules of the present invention prepared in Example 1. Also, as the comparison group, the tomato crop was treated with an agricultural chemical (i.e., clothianidin) known to show a potent insecticidal effect against thrips at an amount of 0.02 g (i.e., an amount of 3 kg/10 a) per pot, and no insecticide was applied to the pot of the control group.

CN/C(=N\[N+](=O)[O-])NCc1cnc(Cl)s1 [clothianidin]
Thrips density After 20 days (after 20 days): 3.7 ± 0.5 number/plant | Thrips density After 40 days (after 40 days): 2.4 ± 0.4 number/plant
